Data published in US7405205B2, “Antitumor antisense sequences directed against R1 and R2 components of ribonucleotide reductase” (Lorus Therapeutics Inc., priority 1996, dated 2008).
Strand notation (5' to 3'): a small letter for the sugar, then the base; units joined by * are phosphorothioate-linked, units joined directly phosphodiester-linked; [ ] holds rarer units or linkages, { } end groups; capitals alone tell only the bases. d = 2'-deoxy (DNA)

System: PC-3 prostrate cell adenocarcinoma
Experiment: Relative colony forming efficiency after antisense treatment (Table 13)
Assay type: cell-based, human
Details: 0.2 μM antisense oligodeoxyribonucleotide phosphorothioate; PC-3 cells; averages of 2-8 determinations

First: AAACGGCTTCTCACACATAT (antisense; DNA, all phosphorothioate, methylation of C not given here) [AS-II-2151-20]
Second: AACCGGAAAAGAAAATGCCT (antisense; DNA, all phosphorothioate, methylation of C not given here) [AS-II-890-20]
The “Reduced relative colony forming efficiency, expressed as % inhibition, PC-3” value of the first is lower: 84.86% for the first, 87.93% for the second.

First: ACCCTTCCCATTGGCTGCGC (dA*dC*dC*dC*dT*dT*dC*dC*dC*dA*dT*dT*dG*dG*dC*dT*dG*dC*dG*dC; antisense) [AS-II-6-20]
Second: ATTAAAATCTGCGTTGAAGC (DNA, all phosphorothioate, methylation of C not given here) [AS-II-1700-20]
The “Reduced relative colony forming efficiency, expressed as % inhibition, PC-3” value of the first is lower: 89.21% for the first, 90.63% for the second.

First: CAGAATATCGACGCAAAAGA (antisense; DNA, all phosphorothioate, methylation of C not given here) [AS-II-909-20]
Second: GCGGCGGGGGTTTTCTCTCA (dG*dC*dG*dG*dC*dG*dG*dG*dG*dG*dT*dT*dT*dT*dC*dT*dC*dT*dC*dA; antisense) [AS-II-412-20]
The “Reduced relative colony forming efficiency, expressed as % inhibition, PC-3” value of the first is higher: 84.86% for the first, 73.96% for the second.

Compared with “GGCCCAGATCACCCCTAAAT (antisense; DNA, all phosphorothioate, methylation of C not given here) [AS-II-2128-20]”, “TATCGCCGCCGTGAGTACAA (DNA, all phosphorothioate, methylation of C not given here) [AS-II-1768-20]” is lower in “Reduced relative colony forming efficiency, expressed as % inhibition, PC-3” value: 88.89% for the first, 86.36% for the second.

System: MIA PaCa-2 pancreatic cell carcinoma
Experiment: as above
Assay type: cell-based, human
Details: 0.2 μM antisense oligodeoxyribonucleotide phosphorothioate; MIA PaCa-2 cells; averages of 2-8 determinations

Compared with “AAACGGCTTCTCACACATAT (antisense; DNA, all phosphorothioate, methylation of C not given here) [AS-II-2151-20]”, “AACCGGAAAAGAAAATGCCT (antisense; DNA, all phosphorothioate, methylation of C not given here) [AS-II-890-20]” is higher in “Reduced relative colony forming efficiency, expressed as % inhibition, MIA PaCa-2” value: 62.15% for the first, 66.02% for the second.

Compared with “ACCCTTCCCATTGGCTGCGC (dA*dC*dC*dC*dT*dT*dC*dC*dC*dA*dT*dT*dG*dG*dC*dT*dG*dC*dG*dC; antisense) [AS-II-6-20]”, “ATTAAAATCTGCGTTGAAGC (DNA, all phosphorothioate, methylation of C not given here) [AS-II-1700-20]” is lower in “Reduced relative colony forming efficiency, expressed as % inhibition, MIA PaCa-2” value: 95.15% for the first, 34.52% for the second.

First: CAGAATATCGACGCAAAAGA (antisense; DNA, all phosphorothioate, methylation of C not given here) [AS-II-909-20]
Second: GCGGCGGGGGTTTTCTCTCA (dG*dC*dG*dG*dC*dG*dG*dG*dG*dG*dT*dT*dT*dT*dC*dT*dC*dT*dC*dA; antisense) [AS-II-412-20]
The “Reduced relative colony forming efficiency, expressed as % inhibition, MIA PaCa-2” value of the first is lower: 46.13% for the first, 55.25% for the second.

Compared with “GGCCCAGATCACCCCTAAAT (antisense; DNA, all phosphorothioate, methylation of C not given here) [AS-II-2128-20]”, “TATCGCCGCCGTGAGTACAA (DNA, all phosphorothioate, methylation of C not given here) [AS-II-1768-20]” is higher in “Reduced relative colony forming efficiency, expressed as % inhibition, MIA PaCa-2” value: 39.23% for the first, 60.36% for the second.

System: T24 bladder cell carcinoma
Experiment: as above
Assay type: cell-based, human
Details: 0.2 μM antisense oligodeoxyribonucleotide phosphorothioate; T24 cells; averages of 2-8 determinations

First: AAACGGCTTCTCACACATAT (antisense; DNA, all phosphorothioate, methylation of C not given here) [AS-II-2151-20]
Second: AACCGGAAAAGAAAATGCCT (antisense; DNA, all phosphorothioate, methylation of C not given here) [AS-II-890-20]
The “Reduced relative colony forming efficiency, expressed as % inhibition, T24” value of the first is lower: 79.83% for the first, 82.07% for the second.

Going from “ACCCTTCCCATTGGCTGCGC (dA*dC*dC*dC*dT*dT*dC*dC*dC*dA*dT*dT*dG*dG*dC*dT*dG*dC*dG*dC; antisense) [AS-II-6-20]” to “ATTAAAATCTGCGTTGAAGC (DNA, all phosphorothioate, methylation of C not given here) [AS-II-1700-20]”, the “Reduced relative colony forming efficiency, expressed as % inhibition, T24” value falls from 73.85% to 70.94%.

Compared with “CAGAATATCGACGCAAAAGA (antisense; DNA, all phosphorothioate, methylation of C not given here) [AS-II-909-20]”, “GCGGCGGGGGTTTTCTCTCA (dG*dC*dG*dG*dC*dG*dG*dG*dG*dG*dT*dT*dT*dT*dC*dT*dC*dT*dC*dA; antisense) [AS-II-412-20]” is lower in “Reduced relative colony forming efficiency, expressed as % inhibition, T24” value: 78.57% for the first, 22.2% for the second.

First: GGCCCAGATCACCCCTAAAT (antisense; DNA, all phosphorothioate, methylation of C not given here) [AS-II-2128-20]
Second: TATCGCCGCCGTGAGTACAA (DNA, all phosphorothioate, methylation of C not given here) [AS-II-1768-20]
The “Reduced relative colony forming efficiency, expressed as % inhibition, T24” value of the first is higher: 83.74% for the first, 74.56% for the second.

System: MDA-MB-231 breast cell adenocarcinoma
Experiment: Relative colony forming efficiency after antisense treatment (Table 13, FIG. 11, FIG. 12)
Assay type: cell-based, human
Details: 0.2 μM antisense oligodeoxyribonucleotide phosphorothioate; MDA-MB-231 cells; averages of 2-8 determinations
Description: Colony forming efficiency was determined as previously reported [Huang and Wright, 1994]. The cells were cultured for 24 hours at 37° C. in growth medium with 10% fetal bovine serum. The cells were washed in 5 ml phosphate buffered saline, pH 7.2, once prior to lipofectin+/−oligonucleotide treatment.
The oligonucleotides being tested were added to cell cultures in the presence of 2.5 μg of DOTMA/DOPE (Lipofectin; Life Technologies, Inc.) for four hours. The oligonucleotide was tested at 0.2 μM unless otherwise indicated. Controls were the cultures treated with lipofectin but without the oligonucleotide. After 4 hours the medium containing the oligonucleotide was removed and washed with 5 ml of growth medium. The cells were then cultured in growth medium containing 10% fetal bovine serum for seven to ten days. Surviving cells were visualized by methylene blue staining, and colonies were scored. In some experiments cell aliquotes were removed from the culture and viability was determined using the trypan blue exclusion test [Phillips, 1973]. Results were analyzed as percent of surviving cells compared to control cells.
To test the antisense effects of many of these sequences as phosphorthioate deoxyribonucleotides, they were examined in relative colony forming experiments performed with a series of human tumor cell lines. Many of these antisense constructs, as predicted, are potent inhibitors of human tumor cell proliferation. For results obtained with cancer cells derived from the bladder, breast, lung, colon, pancreas, prostate, liver and cervix, see Table 13. In addition, in vivo studies with AS-II-626-20 were undertaken in C3H/HeN mice as reported in Table 14 and show a significant reduction in metastasis in the antisense treated mice.
Colony forming ability of MDA-MB-231 human breast cancer cells treated with 28 different antisense oligonucleotides was estimated as previously described (Choy et al., 1988). Aliquots of cell suspension were seeded into 60 mm Petri dishes and incubated at 37° C. overnight in α-MEM medium supplemented with 10% fetal bovine serum. Cells were washed in 5 ml of phosphate buffered saline, pH 7.2, prior to 0.2 μM antisense/lipofectin treatments for 4 hours. The media containing the antisense oligonucleotides were removed and cells were washed once and cultured in growth medium for 7 to 10 days. Colonies were stained with methylene blue and scored as described (Choy et al., 1988; Huang and Wright 1994). Percent inhibition was calculated by comparison with the number of colonies present in cultures grown in the absence of antisense oligonucleotides. All experiments were performed in quadruplicate. FIG. 11 is a graph of the percentage inhibition of colony formation by treatment with the various antisense oligonucleotides.
Colony forming ability of various human tumor cell lines was estimated by determining relative colony forming efficiencies (Choy et al., 1988). Cells from various cell lines were washed in 5 ml of phosphate buffered saline, pH 7.2. The cells were treated with 0.2 μM AS-I-618-20 antisense oligonucleotide/lipofectin for 4 hours. The medium containing the antisense oligonucleotide was then removed and the cells were gently washed with 5 ml of growth medium. The cells were cultured in growth medium containing 10% fetal bovine serum for seven to ten days. […] The following human tumor cell lines were evaluated: HepG2 (liver), SK-OV-3 (ovary), U87 (brain), A2058 (melanoma), H460 (lung), MDA-MB-231 (breast) and AsPC-1 (pancreas).

Compared with “AAACGGCTTCTCACACATAT (antisense; DNA, all phosphorothioate, methylation of C not given here) [AS-II-2151-20]”, “AACCGGAAAAGAAAATGCCT (antisense; DNA, all phosphorothioate, methylation of C not given here) [AS-II-890-20]” is lower in “Reduced relative colony forming efficiency, expressed as % inhibition, MDA-MB-231” value: 95.14% for the first, 88.2% for the second.

Going from “ACCCTTCCCATTGGCTGCGC (dA*dC*dC*dC*dT*dT*dC*dC*dC*dA*dT*dT*dG*dG*dC*dT*dG*dC*dG*dC; antisense) [AS-II-6-20]” to “ATTAAAATCTGCGTTGAAGC (DNA, all phosphorothioate, methylation of C not given here) [AS-II-1700-20]”, the “Reduced relative colony forming efficiency, expressed as % inhibition, MDA-MB-231” value falls from 88.4% to 30.75%.

Compared with “CAGAATATCGACGCAAAAGA (antisense; DNA, all phosphorothioate, methylation of C not given here) [AS-II-909-20]”, “GGCCCAGATCACCCCTAAAT (antisense; DNA, all phosphorothioate, methylation of C not given here) [AS-II-2128-20]” is higher in “Reduced relative colony forming efficiency, expressed as % inhibition, MDA-MB-231” value: 45.96% for the first, 91.3% for the second.

With “TATCGCCGCCGTGAGTACAA (DNA, all phosphorothioate, methylation of C not given here) [AS-II-1768-20]” the “Reduced relative colony forming efficiency, expressed as % inhibition, MDA-MB-231” value was 91.56%.

System: A549 lung cell carcinoma
Experiment: Relative colony forming efficiency after antisense treatment (Table 13)
Assay type: cell-based, human
Details: 0.2 μM antisense oligodeoxyribonucleotide phosphorothioate; A549 cells; averages of 2-8 determinations

First: AAACGGCTTCTCACACATAT (antisense; DNA, all phosphorothioate, methylation of C not given here) [AS-II-2151-20]
Second: AACCGGAAAAGAAAATGCCT (antisense; DNA, all phosphorothioate, methylation of C not given here) [AS-II-890-20]
The “Reduced relative colony forming efficiency, expressed as % inhibition, A549” value of the first is lower: 79.19% for the first, 81.6% for the second.

Compared with “ATTAAAATCTGCGTTGAAGC (DNA, all phosphorothioate, methylation of C not given here) [AS-II-1700-20]”, “CAGAATATCGACGCAAAAGA (antisense; DNA, all phosphorothioate, methylation of C not given here) [AS-II-909-20]” is higher in “Reduced relative colony forming efficiency, expressed as % inhibition, A549” value: 77.28% for the first, 78.68% for the second.

Compared with “GCGGCGGGGGTTTTCTCTCA (dG*dC*dG*dG*dC*dG*dG*dG*dG*dG*dT*dT*dT*dT*dC*dT*dC*dT*dC*dA; antisense) [AS-II-412-20]”, “GGCCCAGATCACCCCTAAAT (antisense; DNA, all phosphorothioate, methylation of C not given here) [AS-II-2128-20]” is higher in “Reduced relative colony forming efficiency, expressed as % inhibition, A549” value: 43.78% for the first, 87.31% for the second.

With “TATCGCCGCCGTGAGTACAA (DNA, all phosphorothioate, methylation of C not given here) [AS-II-1768-20]” the “Reduced relative colony forming efficiency, expressed as % inhibition, A549” value was 86.8%.

System: HCT116 colon cell carcinoma
Experiment: as above
Assay type: cell-based, human
Details: 0.2 μM antisense oligodeoxyribonucleotide phosphorothioate; HCT116 cells; averages of 2-8 determinations

In the case of “GCGGCGGGGGTTTTCTCTCA (dG*dC*dG*dG*dC*dG*dG*dG*dG*dG*dT*dT*dT*dT*dC*dT*dC*dT*dC*dA; antisense) [AS-II-412-20]”, the “Reduced relative colony forming efficiency, expressed as % inhibition, HCT116” value is reported as 27.98%.

System: HepG2 hepatocellular carcinoma
Experiment: Relative colony forming efficiency after antisense treatment (Table 13, FIG. 12)
Assay type: cell-based, human
Details: 0.2 μM antisense oligodeoxyribonucleotide phosphorothioate; HepG2 cells; averages of 2-8 determinations

Compared with “ACCCTTCCCATTGGCTGCGC (dA*dC*dC*dC*dT*dT*dC*dC*dC*dA*dT*dT*dG*dG*dC*dT*dG*dC*dG*dC; antisense) [AS-II-6-20]”, “GCGGCGGGGGTTTTCTCTCA (dG*dC*dG*dG*dC*dG*dG*dG*dG*dG*dT*dT*dT*dT*dC*dT*dC*dT*dC*dA; antisense) [AS-II-412-20]” is lower in “Reduced relative colony forming efficiency, expressed as % inhibition, HepG2” value: 97.89% for the first, 26.23% for the second.
